Each block holds one compound with its values, some of them ahead of it.
Assays:
[1] = cited from earlier work
[2] = tested on: cGAS-STING pathway; parameters: method as in PMID 31036082; conditions: cited from earlier work
[3] = tested on: cGAS-STING pathway; test: cGAS-STING pathway, IFN-β and ISG readout in pancreatic cancer organoids; type: cell-based, human; conditions: TBK1 inhibitor added to culture medium
Protocol: Tumor tissues or cells were thoroughly lysed in RIPA buffer containing protease and phosphatase inhibitors. The lysates were then centrifuged to collect the supernatant. Proteins were separated by electrophoresis in MOPS buffer and subsequently transferred onto a PVDF membrane. After blocking, the membrane was sequentially incubated with the primary antibody, secondary antibody, and chemiluminescent substrate (ECL) for imaging.
(§1) RNA from tumor tissues or cells was extracted using the SteadyPure Universal RNA Extraction Kit (Accurate Biology) and reverse transcribed into cDNA with the Evo M-MLV Reverse Transcription Kit (Accurate Biology). Relative RNA expression levels were quantified using 2X Universal SYBR Green Fast qPCR Mix (Abclonal), and the results were recorded on the qTOWER®3 84 Real-Time PCR system.
(§2) Multiplex cytokine detection was performed using Luminex cytokine bead array technology provided by WayenBio, Shanghai. In the mouse tumor model, levels of multiple cytokines were simultaneously measured and normalized to tumor weight. For the quantification of specific cytokines, such as IL-6 and IFN-β, enzyme-linked immunosorbent assay (ELISA) kits from Abclonal were used. The assays were conducted according to the manufacturer's instructions.

[4] = tested on: subcutaneous pancreatic tumor; test: Subcutaneous pancreatic tumor model; type: in vivo, C57BL/6 mice; conditions: co-administered with D166
Protocol: C57BL/6 mice were obtained from Phenotek (Shanghai) and randomly assigned to groups, with a minimum of six mice per group. For the subcutaneous tumor model, approximately 5 × 10^5 tumor cells were suspended in 150 μL PBS and injected into the left flank of the mice. Tumor size was measured every four days starting from day 7 post-injection. On days 9, 12, and 15, the mice were administered three different concentrations of the drug via peritumoral injection, while the Control group received only the solvent. The mice were euthanized on day 25, and tumors were excised, weighed, and further analyzed.
as §2

[5] = target: T1, h-STING (Homo sapiens, UniProt Q86WV6, G230A/R293Q/R71H); test: THP1-Dual reporter activation fold; type: cell-based
T1 construct: THP1-Dual Fold (10 μM); endogenous in cells; host or cells: THP1-Dual
T1 sequence (Q86WV6 whole entry R71H/G230A/R293Q): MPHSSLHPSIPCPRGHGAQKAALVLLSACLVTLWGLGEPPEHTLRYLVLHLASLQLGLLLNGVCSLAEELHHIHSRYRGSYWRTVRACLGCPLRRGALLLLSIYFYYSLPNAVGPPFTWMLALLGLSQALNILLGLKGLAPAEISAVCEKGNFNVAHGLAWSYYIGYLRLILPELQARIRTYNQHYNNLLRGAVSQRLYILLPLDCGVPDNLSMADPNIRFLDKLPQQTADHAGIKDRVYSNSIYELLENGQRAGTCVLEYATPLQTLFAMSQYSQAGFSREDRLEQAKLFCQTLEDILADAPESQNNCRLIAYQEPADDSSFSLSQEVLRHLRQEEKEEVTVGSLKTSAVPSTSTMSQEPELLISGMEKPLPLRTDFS

[6] = Pharmacokinetic parameters, i.v. and p.o.; type: in vivo
[7] = target: T2, m-STING (Mus musculus, UniProt Q3TBT3); test: Raw-lucia reporter activation fold; type: cell-based
T2 construct: Raw-lucia Fold (50 μM); endogenous in cells; host or cells: RAW-Lucia
T2 sequence (Q3TBT3 1-378): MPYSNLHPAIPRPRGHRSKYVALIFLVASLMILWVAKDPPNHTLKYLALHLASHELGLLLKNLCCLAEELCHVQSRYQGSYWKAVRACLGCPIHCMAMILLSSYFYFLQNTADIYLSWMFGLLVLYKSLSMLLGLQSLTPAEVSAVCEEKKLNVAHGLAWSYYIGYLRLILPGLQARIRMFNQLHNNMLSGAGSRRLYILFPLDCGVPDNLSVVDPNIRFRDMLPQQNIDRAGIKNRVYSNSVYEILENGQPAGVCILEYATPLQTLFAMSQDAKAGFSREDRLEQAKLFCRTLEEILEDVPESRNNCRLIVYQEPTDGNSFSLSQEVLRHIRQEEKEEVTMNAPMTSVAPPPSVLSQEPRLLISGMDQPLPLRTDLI

[8] = tested on: STING signaling; test: Relative gene expression in RAW-Lucia cells (RT-qPCR); type: cell-based, mouse
Protocol: as §1

SMILES: Nc1ncnc2c1ncn2[C@@H]1O[C@@H]2COP(=O)([S-])O[C@@H]3[C@H](O)[C@@H](COP([O-])(=S)O[C@H]2[C@H]1O)O[C@H]3n1cnc2c(N)ncnc21.[Na+].[Na+] (stereo partly drawn) [ADU-S100]
reason for termination in phase I clinical trials [1]: poor drug stability and systemic toxicity

SMILES: Cc1ccc2c(=O)c3cccc(CC(=O)O)c3oc2c1C [DMXAA, 5,6-Dimethylxanthenone-4-acetic acid]
species in which the cGAS-STING pathway is activated [2]: only in mice

SMILES: Nc1nc2c(ncn2[C@@H]2O[C@@H]3CO[P@@](=O)(S)O[C@H]4[C@H](F)[C@H](n5cnc6c(N)ncnc65)O[C@@H]4CO[P@@](=O)(S)O[C@@H]2[C@@H]3F)c(=O)[nH]1 [MK-1454]
efficacy in clinical study ([1]; single-agent treatment group): limited efficacy as a monotherapy

SMILES: O=C(NCCCNc1nc(Nc2cccc(CN3CCOCC3)c2)ncc1C1CC1)C1CCC1 [MRT67037, reference compound]
effect on D166-induced ISG activation in organoids [3]: rescued the D166-induced ISG activation | effect on the tumor-killing effect of D166 [4]: counteracted the tumor-killing effect of D166

THP1-Dual Fold (10 μM) [5]: 43.09 Fold | AUCInf ([6]; i.v., average of three runs): 1372 ng·h/mL | CL ([6]; i.v., average of three runs): 12.3 mL/min/kg | MRTInf ([6]; i.v., average of three runs): 15.6 min | T1/2 ([6]; i.v., average of three runs): 39.6 min | Vz ([6]; i.v., average of three runs): 0.70 L/kg | AUCInf ([6]; p.o., average of three runs): 2852 ng·h/mL | MRTInf ([6]; p.o., average of three runs): 53.4 min | T1/2 ([6]; p.o., average of three runs): 65.4 min | F ([6]; p.o., oral bioavailability): 69.3% | Raw-lucia Fold (50 μM) [7]: 22.59 Fold
SMILES: COc1cc2cc(C(=O)CCC(=O)O)sc2cc1OC [MSA-2, reference compound]
Relative expression (Cxcl10/actin) [8]: 179.40 ± 2.58 | Relative expression (Ifnb/actin) [8]: 125.70 ± 3.06

— paper PMC12160547, “Identification of a Novel Small Molecule STING Agonist Reshaping the Immunomicroenvironment of Pancreatic Ductal Adenocarcinoma” (International Journal of Biological Sciences, 2025)
